Reference: US7247634B2, “Rifamycin derivatives effective against drug-resistant microbes” (Cumbre Pharmaceuticals Inc., priority 2004, dated 2007)
≈ marks a conversion by molar mass, not a printed value.

Columns and labels:
Format in all cases: cell-based
[1] = test system: Streptococcus pyogenes ATCC19615; assay: MIC, microbroth dilution (NCCLS); settings: rifS strain, THY Broth, 37° C., read-out: Antimicrobial activity (MIC)
[2] = test system: Haemophilus influenzae ATCC10211; assay: MIC, microbroth dilution (NCCLS); settings: rifS strain, BHI Broth with NAD and hematin, 37° C., read-out: Antimicrobial activity (MIC)
[3] = test system: Staphylococcus epidermidis ATCC12228; assay: MIC, microbroth dilution (NCCLS); settings: rifS strain, Cation-Adjusted Mueller-Hinton Broth, 37° C., read-out: Antimicrobial activity (MIC)
[4] = test system: Staphylococcus aureus ATCC29213; assay: MIC, microbroth dilution (NCCLS); settings: rifS strain, Cation-Adjusted Mueller-Hinton Broth, 37° C., read-out: Antimicrobial activity (MIC)
[5] = test system: Enterococcus faecalis ATCC29212; assay: MIC, microbroth dilution (NCCLS); settings: rifS strain, BHI Broth, 37° C., read-out: Antimicrobial activity (MIC)
[6] = test system: Escherichia coli ATCC25922; assay: MIC, microbroth dilution (NCCLS); settings: rifS strain, Cation-Adjusted Mueller-Hinton Broth, 37° C., read-out: Antimicrobial activity (MIC)
[7] = test system: Staphylococcus aureus ATCC29213 rpoB^H418Y; assay: microbe, parasite or virus in culture; settings: ATCC29213, read-out: Antimicrobial activity (MIC)
How it was run: (§1)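 MICs by NCCLS broth microdilution, incubation at 37 °C, in cation-adjusted Mueller-Hinton broth. Strains: rifampin-resistant S. aureus ATCC 29213 with rpoB D417Y or H418Y, and quinolone-resistant EN1252a carrying gyrA S84L plus grlA S80F.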

[8] = test system: Staphylococcus aureus ATCC29213 rpoB^D417Y; assay: microbe, parasite or virus in culture; settings: ATCC29213, read-out: Antimicrobial activity (MIC)
How it was run: as §1

[9] = test system: Staphylococcus aureus EN1252a gyrA^S84L grlA^S80F; assay: microbe, parasite or virus in culture; settings: read-out: Antimicrobial activity (MIC)
How it was run: as §1

[10] = test system: Mycobacterium smegmatis ATCC700084; assay: MIC, microbroth dilution (NCCLS); settings: Mycolicibacterium smegmatis, rifS strain, Middlebrook Broth plus ADC Enrichment, 37° C., read-out: Antimicrobial activity (MIC)
[11] = test system: Streptococcus pneumoniae ATCC6303; assay: MIC, microbroth dilution (NCCLS); settings: rifS strain, THY Broth with 1 mg/mL catalase, 5% CO2, 37° C., read-out: Antimicrobial activity (MIC)

SMILES | MIC [1] [µg/mL] | MIC [2] [µg/mL] | MIC [3] [µg/mL] | MIC [4] [µg/mL] | MIC [5] [µg/mL] | MIC [6] [µg/mL] | MIC [7] [µg/mL] | MIC [8] [µg/mL] | MIC [9] [µg/mL] | MIC [10] [µg/mL] | MIC [11] [µg/mL]
COc1c(N2CC(NC3CCN(C4=C5NC(=O)/C(C)=C\C=C\[C@H](C)[C@H](O)[C@@H](C)[C@@H](O)[C@@H](C)[C@H](OC(C)=O)[C@H](C)[C@@H](OC)/C=C/O[C@@]6(C)Oc7c(C)c(O)c(c(c7C6=O)C4=O)C5=O)CC3)C2)c(F)cc2c(=O)c(C(=O)O)cn(C3CC3)c12 [Example 33, 3-{4-[1-(3-Carboxy-1-cyclopropyl-6-fluoro-8-methoxy-4-oxo-1,4-dihydroquinolin-7-yl)-azetidin-3-ylamino]-piperidin-1-yl}rifamycin S] | 0.008 to 0.063 (≈ 0.00712 to 0.056 µM) | 0.125 to 2 (≈ 0.111 to 1.78 µM) | 0.008 to 0.063 (≈ 0.00712 to 0.056 µM) | 0.004 to 0.5 (≈ 0.00356 to 0.445 µM) | 2 to 32 (≈ 1.78 to 28.5 µM) | 0.125 to 8 (≈ 0.111 to 7.12 µM) | 0.06 to 16 (≈ 0.0534 to 14.2 µM) | 0.06 to 32 (≈ 0.0534 to 28.5 µM) | 0.004 to 0.5 (≈ 0.00356 to 0.445 µM) | 0.5 to 64 | 0.008 to 0.125 (≈ 0.00712 to 0.111 µM)
COc1c(N2CC3CCCN(C4CCN(C5=C6NC(=O)/C(C)=C\C=C\[C@H](C)[C@H](O)[C@@H](C)[C@@H](O)[C@@H](C)[C@H](OC(C)=O)[C@H](C)[C@@H](OC)/C=C/O[C@@]7(C)Oc8c(C)c(O)c(c(c8C7=O)C5=O)C6=O)CC4)C3C2)c(F)cc2c(=O)c(C(=O)O)cn(C3CC3)c12 (stereo partly shown) [Example 35, 3-{4-[6-(3-Carboxy-1-cyclopropyl-6-fluoro-8-methoxy-4-oxo-1,4-dihydroquinolin-7-yl)-octahydro-pyrrolo[3,4-b]-pyrridin-1-yl]-piperidin-1-yl}rifamycin S] | 0.008 to 0.063 (≈ 0.00679 to 0.0535 µM) | 0.125 to 2 (≈ 0.106 to 1.7 µM) | 0.008 to 0.063 (≈ 0.00679 to 0.0535 µM) | 0.004 to 0.5 (≈ 0.00339 to 0.424 µM) | 2 to 32 (≈ 1.7 to 27.2 µM) | 0.125 to 8 (≈ 0.106 to 6.79 µM) | 0.06 to 16 (≈ 0.0509 to 13.6 µM) | 0.06 to 32 (≈ 0.0509 to 27.2 µM) | 0.004 to 0.5 (≈ 0.00339 to 0.424 µM) | 0.5 to 64 | 0.008 to 0.125 (≈ 0.00679 to 0.106 µM)
CO[C@H]1/C=C/O[C@@]2(C)Oc3c(C)c(O)c4c(c3C2=O)C(=O)C(N2CCC(N3CCN(c5c(F)cc6c(=O)c(C(=O)O)cn(C7CC7)c6c5Cl)CC3)CC2)=C(NC(=O)/C(C)=C\C=C\[C@H](C)[C@H](O)[C@@H](C)[C@@H](O)[C@@H](C)[C@H](OC(C)=O)[C@@H]1C)C4=O [Example 38, 3-{4-[1-(3-Carboxy-8-chloro-1-cyclopropyl-6-fluoro-4-oxo-1,4-dihydroquinolin-7-yl)-piperazin-4-yl]-piperidin-1-yl}rifamycin S] | 0.008 to 0.063 (≈ 0.007 to 0.0551 µM) | 0.125 to 2 (≈ 0.109 to 1.75 µM) | 0.008 to 0.063 (≈ 0.007 to 0.0551 µM) | 0.004 to 0.5 (≈ 0.0035 to 0.438 µM) | 2 to 32 (≈ 1.75 to 28 µM) | 0.125 to 8 (≈ 0.109 to 7 µM) | 0.06 to 16 (≈ 0.0525 to 14 µM) | 0.06 to 32 (≈ 0.0525 to 28 µM) | 0.004 to 0.5 (≈ 0.0035 to 0.438 µM) | 0.5 to 64 | 0.008 to 0.125 (≈ 0.007 to 0.109 µM)
COc1c(N2CCC(C(C)NC3CCN(C4=C5NC(=O)/C(C)=C\C=C\[C@H](C)[C@H](O)[C@@H](C)[C@@H](O)[C@@H](C)[C@H](OC(C)=O)[C@H](C)[C@@H](OC)/C=C/O[C@@]6(C)Oc7c(C)c(O)c(c(c7C6=O)C4=O)C5=O)CC3)C2)c(F)cc2c(=O)c(C(=O)O)cn(C3CC3)c12 (stereo partly shown) [Example 39, 3-{4-[1-(3-Carboxy-1-cyclopropyl-6-fluoro-8-methoxy-4-oxo-1,4-dihydroquinolin-7-yl)-pyrrolidin-3-ylethylamino]-piperidin-1-yl}rifamycin S] | 0.008 to 0.063 (≈ 0.00686 to 0.054 µM) | 0.125 to 2 (≈ 0.107 to 1.71 µM) | 0.008 to 0.063 (≈ 0.00686 to 0.054 µM) | 0.004 to 0.5 (≈ 0.00343 to 0.429 µM) | 2 to 32 (≈ 1.71 to 27.4 µM) | 0.125 to 8 (≈ 0.107 to 6.86 µM) | 0.06 to 16 (≈ 0.0514 to 13.7 µM) | 0.06 to 32 (≈ 0.0514 to 27.4 µM) | 0.004 to 0.5 (≈ 0.00343 to 0.429 µM) | 0.5 to 64 | 0.008 to 0.125 (≈ 0.00686 to 0.107 µM)
COc1c(N2CCN(C(=O)C3CN(C4=C5NC(=O)/C(C)=C\C=C\[C@H](C)[C@H](O)[C@@H](C)[C@@H](O)[C@@H](C)[C@H](OC(C)=O)[C@H](C)[C@@H](OC)/C=C/O[C@@]6(C)Oc7c(C)c(O)c(c(c7C6=O)C4=O)C5=O)C3)CC2)c(F)cc2c(=O)c(C(=O)O)cn(C3CC3)c12 [Example 45, 3-{3-[4-(3-Carboxy-1-cyclopropyl-6-fluoro-8-methoxy-4-oxo-1,4-dihydroquinolin-7-yl)-piperazin-1-yl-carbonyl]-azetidin-1-yl}rifamycin S] | 0.008 to 0.063 (≈ 0.00703 to 0.0554 µM) | 0.125 to 2 (≈ 0.11 to 1.76 µM) | 0.008 to 0.063 (≈ 0.00703 to 0.0554 µM) | 0.004 to 0.5 (≈ 0.00351 to 0.439 µM) | 2 to 32 (≈ 1.76 to 28.1 µM) | 0.125 to 8 (≈ 0.11 to 7.03 µM) | 0.06 to 16 (≈ 0.0527 to 14.1 µM) | 0.06 to 32 (≈ 0.0527 to 28.1 µM) | 0.004 to 0.5 (≈ 0.00351 to 0.439 µM) | 0.5 to 64 | 0.008 to 0.125 (≈ 0.00703 to 0.11 µM)
